Source: US12064398B2, “Parenteral formulations” (Jazz Pharmaceuticals Research UK Limited, priority 2016, dated 2024)

Assay: Solubility screening of CBD in solvents/diluents/surfactants
Format: physicochemical
Protocol: […] All the vials were sonicated tor 5 minutes and then left on a roller mixer, mixing for 48 hours. The roller mixer was covered with aluminium foil to prevent light exposure.
After 48 hours, all samples were centrifuged, and the supernatants taken (250 or 500 μL) using a Gilson pipette and added into a 10 ml volume flask. Methanol was used to make up the volume and the samples were tested by HPLC. Sample numbers 5, 9 and 10 were assayed using visual observation as the amount of API that could be added was so high.

With `C=C(C)[C@@H]1CCC(C)=C[C@H]1c1c(O)cc(CCCCC)cc1O` [CBD, cannabidiol] the “ASSAY CBD” value (Crodosal HS (0.5% w/v), HPLC) was 2.6529 mg/mL, the “ASSAY CBD” value (Crodosal HS (1% w/v), HPLC) was 5.4462 mg/mL and the “ASSAY CBD” value (Crodosal HS (2% w/v), HPLC) was 5.0344 mg/mL. The “ASSAY CBD” value (Crodosal HS (3% w/v), HPLC) was 6.3465 mg/mL, the “ASSAY CBD” value (Crodosal HS (4% w/v), HPLC) was 7.5569 mg/mL and the “ASSAY CBD” value (Crodosal HS (5% w/v), HPLC) was 7.9983 mg/mL. For the same compound, the “ASSAY CBD” value (ETOH (0.5% v/v), HPLC) was 0.0496 mg/mL, the “ASSAY CBD” value (ETOH (1% v/v), HPLC) was 0.0426 mg/mL and the “ASSAY CBD” value (ETOH (3% v/v), HPLC) was 0.0054 mg/mL. The “ASSAY CBD” value (ETOH (5% v/v), HPLC) was 0.0244 mg/mL, the “ASSAY CBD” value (ETOH (100% v/v), visual observation) was >1000 mg/mL and the “ASSAY CBD” value (Glucose (5% w/v), HPLC) was 0.0008 mg/mL. For the same compound, the “ASSAY CBD” value (Glucose (10% w/v), HPLC) was 0.2379 mg/mL, the “ASSAY CBD” value (Glycerol (10% v/v), HPLC) was 0.0029 mg/mL and the “ASSAY CBD” value (Glycerol (20% v/v), HPLC) was 0.0437 mg/mL. The “ASSAY CBD” value (Glycerol (40% v/v), HPLC) was 0.0859 mg/mL, the “ASSAY CBD” value (Mannitol (5% w/v), HPLC) was 0.0009 mg/mL and the “ASSAY CBD” value (Mannitol (10% w/v), HPLC) was 0.0148 mg/mL. The “ASSAY CBD” value (PEG400 (5% v/v), HPLC) was 0.1596 mg/mL, the “ASSAY CBD” value (PEG400 (15% v/v), HPLC) was 0.1946 mg/mL and the “ASSAY CBD” value (PEG400 (25% v/v), HPLC) was 0.1617 mg/mL. The “ASSAY CBD” value (PEG400 (100% v/v), visual observation) was >400 mg/mL, the “dissolution of the 10 mg of CBD added” value (PEG400 and ethanol increased to 50% in water) was “did not dissolve completely” and the “ASSAY CBD” value (PVP K12 (1% w/v), HPLC) was 0.0615 mg/mL. The “ASSAY CBD” value (PVP K12 (2% w/v), HPLC, high assay result probably due to sampling problem) was 0.1746 mg/mL, the “ASSAY CBD” value (PVP K12 (3% w/v), HPLC) was 0.0639 mg/mL and the “ASSAY CBD” value (PVP K12 (5% w/v), HPLC) was 0.0157 mg/mL. For the same compound, the “ASSAY CBD” value (PVP K17 (1% w/v), HPLC) was 0.0031 mg/mL, the “ASSAY CBD” value (PVP K17 (2% w/v), HPLC) was 0.0433 mg/mL and the “ASSAY CBD” value (PVP K17 (3% w/v), HPLC) was 0.0409 mg/mL. The “ASSAY CBD” value (PVP K17 (5% w/v), HPLC) was 0.2360 mg/mL, the “ASSAY CBD” value (Pluronic F68 (1% w/v), HPLC) was 0.1403 mg/mL and the “ASSAY CBD” value (Pluronic F68 (2% w/v), HPLC) was 0.5209 mg/mL. The “ASSAY CBD” value (Pluronic F68 (3% w/v), HPLC) was 0.5042 mg/mL, the “ASSAY CBD” value (Pluronic F68 (5% w/v), HPLC) was 1.0654 mg/mL and the “ASSAY CBD” value (Polysorbate 80 (0.5% w/v), HPLC) was 3.2600 mg/mL. For the same compound, the “ASSAY CBD” value (Polysorbate 80 (1% w/v), HPLC) was 6.0415 mg/mL, the “ASSAY CBD” value (Polysorbate 80 (3% w/v), HPLC) was 22.9779 mg/mL and the “ASSAY CBD” value (Polysorbate 80 (5% w/v), HPLC) was 30.6529 mg/mL. The “ASSAY CBD” value (Saline (0.45% w/v), HPLC) was 0.0021 mg/mL, the “ASSAY CBD” value (Saline (0.9% w/v), HPLC) was 0.0551 mg/mL and the “ASSAY CBD” value (Sucrose (5% w/v), HPLC) was 0.0202 mg/mL. The “ASSAY CBD” value (Sucrose (10% w/v), HPLC) was 0.0822 mg/mL, the “ASSAY CBD” value (Trehalose (5% w/v), HPLC) was 0.0600 mg/mL and the “ASSAY CBD” value (Trehalose (10% w/v), HPLC) was 0.0124 mg/mL. For the same compound, the “ASSAY CBD” value (t-butyl alcohol (TBA), (100% v/v), visual observation) was >600 mg/mL.
